Reference: PMC2151541 (The Journal of General Physiology, 2006)

Biological target: muscle acetylcholine nicotinic receptor (AChR), adult mouse muscle, wild type (Mus musculus, UniProt P02716+P04756+P09690+P20782)
Assay: cell-attached single-channel patch clamp
Assay type: cell-based

muscle acetylcholine nicotinic receptor (AChR), adult mouse muscle, wild type, sequence (P02716 25-520): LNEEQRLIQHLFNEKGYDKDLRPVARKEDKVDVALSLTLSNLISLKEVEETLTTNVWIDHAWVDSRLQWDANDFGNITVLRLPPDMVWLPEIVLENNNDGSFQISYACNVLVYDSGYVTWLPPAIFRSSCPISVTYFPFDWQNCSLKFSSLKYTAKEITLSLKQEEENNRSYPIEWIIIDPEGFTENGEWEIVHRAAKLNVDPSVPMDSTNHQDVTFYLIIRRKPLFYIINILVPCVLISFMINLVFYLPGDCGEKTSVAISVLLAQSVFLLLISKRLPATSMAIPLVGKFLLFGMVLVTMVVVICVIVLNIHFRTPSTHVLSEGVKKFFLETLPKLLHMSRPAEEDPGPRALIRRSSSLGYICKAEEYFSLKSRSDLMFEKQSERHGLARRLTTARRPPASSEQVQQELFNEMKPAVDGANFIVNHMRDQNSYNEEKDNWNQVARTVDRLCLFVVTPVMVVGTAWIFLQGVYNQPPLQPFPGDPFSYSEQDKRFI
muscle acetylcholine nicotinic receptor (AChR), adult mouse muscle, wild type, sequence (P20782 21-493): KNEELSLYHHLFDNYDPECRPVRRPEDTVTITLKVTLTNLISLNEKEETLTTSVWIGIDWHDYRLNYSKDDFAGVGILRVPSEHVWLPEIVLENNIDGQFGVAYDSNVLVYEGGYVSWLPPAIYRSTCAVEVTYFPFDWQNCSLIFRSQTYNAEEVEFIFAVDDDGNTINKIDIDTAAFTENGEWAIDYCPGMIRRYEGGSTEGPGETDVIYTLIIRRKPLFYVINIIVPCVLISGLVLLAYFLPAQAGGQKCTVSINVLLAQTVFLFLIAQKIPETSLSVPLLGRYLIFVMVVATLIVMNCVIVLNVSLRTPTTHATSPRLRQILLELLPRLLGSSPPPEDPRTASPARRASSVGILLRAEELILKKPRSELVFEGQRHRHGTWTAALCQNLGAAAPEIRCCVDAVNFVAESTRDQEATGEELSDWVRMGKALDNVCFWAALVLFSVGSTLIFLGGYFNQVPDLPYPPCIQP
muscle acetylcholine nicotinic receptor (AChR), adult mouse muscle, wild type, sequence (P04756 21-457): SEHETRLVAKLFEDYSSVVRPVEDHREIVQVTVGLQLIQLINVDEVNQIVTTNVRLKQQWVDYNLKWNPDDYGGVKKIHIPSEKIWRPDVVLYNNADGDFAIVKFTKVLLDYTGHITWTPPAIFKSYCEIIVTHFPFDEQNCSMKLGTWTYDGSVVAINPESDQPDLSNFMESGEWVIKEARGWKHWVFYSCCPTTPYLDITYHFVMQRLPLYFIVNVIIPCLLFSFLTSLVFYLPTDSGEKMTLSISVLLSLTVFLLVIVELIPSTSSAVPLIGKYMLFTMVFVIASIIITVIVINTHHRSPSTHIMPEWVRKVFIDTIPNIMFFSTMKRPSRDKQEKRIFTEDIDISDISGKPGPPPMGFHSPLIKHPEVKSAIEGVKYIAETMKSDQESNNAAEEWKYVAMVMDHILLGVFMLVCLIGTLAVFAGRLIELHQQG
muscle acetylcholine nicotinic receptor (AChR), adult mouse muscle, wild type, sequence (P09690 24-501): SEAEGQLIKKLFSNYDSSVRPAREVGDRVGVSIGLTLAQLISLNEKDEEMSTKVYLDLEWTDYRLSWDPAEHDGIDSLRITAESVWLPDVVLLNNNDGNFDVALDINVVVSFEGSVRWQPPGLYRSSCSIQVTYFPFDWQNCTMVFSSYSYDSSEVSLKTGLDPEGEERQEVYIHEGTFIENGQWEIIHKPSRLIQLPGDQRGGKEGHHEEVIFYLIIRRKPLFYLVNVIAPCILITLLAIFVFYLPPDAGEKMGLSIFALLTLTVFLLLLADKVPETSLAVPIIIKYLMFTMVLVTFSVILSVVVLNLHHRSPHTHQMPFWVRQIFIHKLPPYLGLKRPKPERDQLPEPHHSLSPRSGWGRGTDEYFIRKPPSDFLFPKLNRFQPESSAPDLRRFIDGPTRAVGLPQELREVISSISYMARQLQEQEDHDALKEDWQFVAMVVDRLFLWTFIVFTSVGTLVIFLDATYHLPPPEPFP

Kd: 12.5 mM
SMILES: C[N+](C)(C)CCO [choline]
